Legend:
Type in all cases: binding
[1] = target: T1, SW480 colon carcinoma cells lysate proteins (Homo sapiens, UniProt P11169); details: PreyGene SLC2A3
T1 sequence (P11169 1-496): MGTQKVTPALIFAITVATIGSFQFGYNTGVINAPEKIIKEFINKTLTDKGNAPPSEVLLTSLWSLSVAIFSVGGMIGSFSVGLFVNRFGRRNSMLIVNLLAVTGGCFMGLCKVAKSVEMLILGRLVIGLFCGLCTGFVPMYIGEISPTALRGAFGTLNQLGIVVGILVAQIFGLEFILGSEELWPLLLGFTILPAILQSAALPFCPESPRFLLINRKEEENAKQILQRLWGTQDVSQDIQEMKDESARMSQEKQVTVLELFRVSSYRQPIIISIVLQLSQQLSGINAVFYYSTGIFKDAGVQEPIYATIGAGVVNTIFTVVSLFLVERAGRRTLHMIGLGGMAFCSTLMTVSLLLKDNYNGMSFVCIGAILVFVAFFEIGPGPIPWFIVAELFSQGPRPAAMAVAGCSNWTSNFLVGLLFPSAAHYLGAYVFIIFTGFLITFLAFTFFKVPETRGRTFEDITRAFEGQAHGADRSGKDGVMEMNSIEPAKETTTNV

[2] = target: SW480 colon carcinoma cells lysate proteins (Homo sapiens, UniProt Q13561); details: PreyGene DCTN2
SW480 colon carcinoma cells lysate proteins (Homo sapiens, UniProt Q13561), sequence (Q13561 whole entry): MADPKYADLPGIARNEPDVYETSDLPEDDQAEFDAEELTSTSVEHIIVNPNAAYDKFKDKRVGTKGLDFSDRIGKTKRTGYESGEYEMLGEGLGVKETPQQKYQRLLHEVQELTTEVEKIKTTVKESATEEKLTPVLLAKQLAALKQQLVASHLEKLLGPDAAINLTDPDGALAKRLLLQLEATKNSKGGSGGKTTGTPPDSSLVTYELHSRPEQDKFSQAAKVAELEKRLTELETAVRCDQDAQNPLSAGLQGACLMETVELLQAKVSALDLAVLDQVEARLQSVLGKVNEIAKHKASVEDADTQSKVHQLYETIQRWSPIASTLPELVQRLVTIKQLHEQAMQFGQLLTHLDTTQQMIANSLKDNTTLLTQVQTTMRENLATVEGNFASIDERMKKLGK

[3] = target: T2, SW480 colon carcinoma cells lysate proteins (Homo sapiens, UniProt Q14019); details: PreyGene COTL1
T2 sequence (Q14019 1-142): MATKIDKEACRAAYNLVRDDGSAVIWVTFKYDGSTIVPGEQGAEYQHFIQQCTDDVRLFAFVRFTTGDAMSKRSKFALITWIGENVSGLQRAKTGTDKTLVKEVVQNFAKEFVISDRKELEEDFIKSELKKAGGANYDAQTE

[4] = target: T3, SW480 colon carcinoma cells lysate proteins (Homo sapiens, UniProt Q8NC51); details: PreyGene SERBP1; SW480 cells
T3 sequence (Q8NC51 1-408): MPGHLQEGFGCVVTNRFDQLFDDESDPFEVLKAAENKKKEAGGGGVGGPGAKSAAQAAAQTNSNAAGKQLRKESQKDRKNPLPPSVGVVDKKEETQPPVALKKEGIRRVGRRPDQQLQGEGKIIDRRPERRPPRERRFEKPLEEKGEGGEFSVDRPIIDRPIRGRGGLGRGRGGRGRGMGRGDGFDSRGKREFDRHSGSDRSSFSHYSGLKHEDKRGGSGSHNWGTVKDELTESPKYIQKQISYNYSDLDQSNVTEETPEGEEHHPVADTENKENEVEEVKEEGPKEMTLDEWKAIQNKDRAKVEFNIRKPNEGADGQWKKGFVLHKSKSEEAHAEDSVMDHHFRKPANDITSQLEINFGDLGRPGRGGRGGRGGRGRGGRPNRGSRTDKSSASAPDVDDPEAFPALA

[5] = target: T4, SW480 colon carcinoma cells lysate proteins (Homo sapiens, UniProt Q92973); details: PreyGene TNPO1; SW480 cells
T4 sequence (Q92973 1-898): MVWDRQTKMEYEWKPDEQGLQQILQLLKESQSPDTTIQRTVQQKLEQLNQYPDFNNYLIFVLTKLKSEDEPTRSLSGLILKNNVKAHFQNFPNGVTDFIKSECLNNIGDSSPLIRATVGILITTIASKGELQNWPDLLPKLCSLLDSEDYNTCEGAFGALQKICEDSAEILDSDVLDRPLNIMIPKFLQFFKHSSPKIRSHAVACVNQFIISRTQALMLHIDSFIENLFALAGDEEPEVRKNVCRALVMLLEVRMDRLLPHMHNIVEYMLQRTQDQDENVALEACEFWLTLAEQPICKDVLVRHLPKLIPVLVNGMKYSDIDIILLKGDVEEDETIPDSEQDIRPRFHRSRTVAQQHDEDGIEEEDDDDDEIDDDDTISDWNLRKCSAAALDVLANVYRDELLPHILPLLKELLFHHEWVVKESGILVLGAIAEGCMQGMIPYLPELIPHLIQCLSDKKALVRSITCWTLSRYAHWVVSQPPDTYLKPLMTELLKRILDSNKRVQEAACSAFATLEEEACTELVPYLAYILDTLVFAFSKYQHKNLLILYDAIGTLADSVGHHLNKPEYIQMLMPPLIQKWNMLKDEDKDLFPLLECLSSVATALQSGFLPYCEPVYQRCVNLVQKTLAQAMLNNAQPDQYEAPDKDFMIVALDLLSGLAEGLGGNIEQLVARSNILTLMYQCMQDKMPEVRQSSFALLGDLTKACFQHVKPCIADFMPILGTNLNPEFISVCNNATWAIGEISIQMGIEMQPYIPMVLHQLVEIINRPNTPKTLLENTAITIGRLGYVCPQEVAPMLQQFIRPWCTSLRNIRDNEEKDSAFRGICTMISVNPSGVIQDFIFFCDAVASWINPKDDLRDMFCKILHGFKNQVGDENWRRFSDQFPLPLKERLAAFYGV

[6] = target: SW480 colon carcinoma cells lysate proteins (Homo sapiens, UniProt Q9HB71); details: PreyGene CACYBP
SW480 colon carcinoma cells lysate proteins (Homo sapiens, UniProt Q9HB71), sequence (Q9HB71 whole entry): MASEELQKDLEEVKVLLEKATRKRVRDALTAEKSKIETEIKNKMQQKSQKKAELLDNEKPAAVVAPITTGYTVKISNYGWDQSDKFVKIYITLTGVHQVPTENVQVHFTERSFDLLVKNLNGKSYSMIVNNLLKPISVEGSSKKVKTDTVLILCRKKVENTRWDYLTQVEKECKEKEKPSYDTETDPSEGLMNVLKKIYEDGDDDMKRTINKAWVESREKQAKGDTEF

## C[C@H](Oc1cc(-c2cnn(C3CCNCC3)c2)cnc1N)c1c(Cl)ccc(F)c1Cl [(5)-crizotinib]
[1]
  AvgP: 0.1834
  SC.Exp. 1-1: 3
  SC.Exp. 1-2: 0
  SC.Exp. 2-1: 0
  SC.Exp. 2-2: 0
  Sum (SC.Exp.): 3
[2]
  AvgP: 0.2964
  SC.Exp. 1-1: 2
  SC.Exp. 1-2: 3
  SC.Exp. 2-1: 0
  SC.Exp. 2-2: 0
  Sum (SC.Exp.): 5
[3]
  AvgP: 0.4372
  SC.Exp. 1-1: 5
  SC.Exp. 1-2: 4
  SC.Exp. 2-1: 0
  SC.Exp. 2-2: 0
  Sum (SC.Exp.): 9
[4]
  AvgP: 0
  SC.Exp. 1-1: 8
  SC.Exp. 1-2: 10
  SC.Exp. 2-1: 5
  SC.Exp. 2-2: 6
  SC.Exp. Sum: 29
[5]
  AvgP: 0
  SC.Exp. 1-1: 9
  SC.Exp. 1-2: 7
  SC.Exp. 2-1: 6
  SC.Exp. 2-2: 6
  SC.Exp. Sum: 28
[6]
  AvgP: 0.392
  SC.Exp. 1-1: 2
  SC.Exp. 1-2: 2
  SC.Exp. 2-1: 0
  SC.Exp. 2-2: 0
  Sum (SC.Exp.): 4
